Assay results: patent US9884122B2, “Small molecule drug conjugates” (Philochem AG, priority 2014, dated 2018)
Blank lines part the entries; values can stand above or below the compound they belong to.

Columns and labels:
[1] = biological target: T1, recombinant carbonic anhydrase IX (Homo sapiens, UniProt Q16790); assay: Determination of ligand KD by fluorescence polarization; type: binding; conditions: for Kd: 5 nM labeled ligand, 1 h room temperature, read-out: KD for fluorophore-linker-ligand complexes
T1 construct: Recombinant CAIX was expressed as described previously; made in house
Method: Fluorescently labeled ligands (2 mg) were dissolved in DMSO (100 μL) and diluted 1:2000 into PBS pH 7.4 to determine the stock's concentration by absorbance measurement at 495 nm (ε495=72,000 M^−1 cm^−1). Recombinant CAIX was expressed as described previously^[3], dialyzed against assay buffer (50 mM tris(hydroxymethyl)aminomethane [TIRS] pH 7.4 containing 1 mM ZnSO4) at 4° C. overnight and the protein concentration determined by absorbance measurement at 280 nm (ε280=35,075 M^−1 cm^−1).
In a black 384-well plate in assay buffer (30 μL) fluorescently labeled ligands (5 nM from appropriately diluted DMSO stocks, final DMSO content adjusted to 0.001%) were incubated with increasing concentrations of recombinant carbonic anhydrase IX (4.6 μM to 140 pM in steps of 1:2) for 1 h at room temperature. The fluorescence polarization (FP) was measured on a Spectra Max Paradigm multimode plate reader (Molecular Devices). Experiments were performed in triplicate, mean FP values divided by the top-plateau signal and the fractional FP value fit to equation (2) using KaleidaGraph 4.0 (Synergy Software). FP=([P]0+[L]0+KD)−√{square root over (([P]0+[L]0+KD)^2−4[P]0[L]0)} (2)
Where FP is the fractional fluorescence polarization, [P]0 the total protein concentration, [L]0 the total concentration of the fluorescently labeled ligand and KD the dissociation constant in nM.

[2] = tested on: CAIX expressing SKRC52 cells; assay: In vitro cytotoxicity assay (MTS); type: cell-based, human
Method: SKRC52 or A549 cells were seeded in 96-well plates in their appropriate culture medium (100 μL) at a density of 5000 cells per well and allowed to grow for 24 h. The medium was replaced with medium containing different concentrations of test substance (100 μL, 300 nM-15 pM in 1:3 dilution steps) and plates were either:
(a) incubated for 72 hours in the presence of the toxic substance, or
(b) incubated for 1 h under standard culture conditions, followed by removal of the medium containing the toxic substance, gently washing the cells fresh medium once and adding new medium (100 μL) and incubating for 72 h under culture conditions.
MTS cell viability dye (20 μL, Promega) was added, the plates were incubated for 1 h under culture conditions and the absorbance at 490 nm measured on a Spectra Max Paradigm multimode plate reader (Molecular Devices). Experiments were performed in triplicate and average cell viability calculated as measured background corrected absorbance divided by the absorbance of untreated control wells. EC50 values were determined by fitting data to the four-parameter logistic equation.

[3] = tested on: subcutaneous SKRC52 tumors; conditions: 3 nmol intravenous, 1-12 h
[4] = biological target: T1, recombinant carbonic anhydrase IX; assay: biochemical; type: binding
Method: The FP was measured on a Spectra Max Paradigm multimode plate reader (Molecular Devices). Experiments were performed in triplicate and data analyzed as described by Wang and co-workers.^[4]

SKRC52 xenograft tumors = tested on: SKRC52 xenograft tumors
Method: SKRC52 xenograft tumors were implanted into balb/c nu/nu mice (Charles River) as described above. […] 5 doses of 4 nmol 7a,b, 8a,b or 7 doses of 70 nmol 9a,b each in PBS pH 7.4 (150 μL) containing 5% DMSO were given on 5 or 7 consecutive days and one group was treated with vehicle (5% DMSO in PBS pH 7.4). In the case of 7-9b an equimolar amount of AAZ was added to the injection solution to control for a possible antitumor activity of CAIX inhibitors. Sorafenib and sunitnib were administered at a standard dose of 30 mg/kg as described previously.^[5] Animals were weighed and tumor sizes measured daily and the tumor volume calculated according to the formula (long side)×(short side)^2×0.5. […] Prism 6 (GraphPad Software) was used for data analysis (regular two-way ANOVA with the Bonferroni test).

[5] = tested on: CAIX-expressing SKRC52 xenografts; conditions: mouse, in vivo
[6] = Homo sapiens, SK-RC-52, Condition (a): incubated 72 hours in the presence of the toxic substance
[7] = Homo sapiens, SK-RC-52, Condition (b): 1 h exposure, wash, then 72 h, concentrations up to 300 nM
[8] = Condition (b): 1 h exposure, wash, then 72 h, concentrations up to 300 nM

- Kd [1]: 46.8 ± 1.2 nM
Compound: NS(=O)(=O)c1ccc(Nc2nc(Cl)nc(NCCOCCOCCNC(=S)Nc3ccc(-c4c5ccc(=O)cc-5oc5cc(O)ccc45)c(C(=O)O)c3)n2)cc1 [Compound 3a, 4-((4-((2-(2-(2-aminoethoxy)ethoxy)ethyl)amino)-6-chloro-1,3,5-triazin-2-yl)amino)benzenesulfonamide fluorescein conjugate]

Compound: COc1cc2cc(c1Cl)N(C)C(=O)C[C@@H](OC(=O)[C@@H](C)NC(=O)CCSC)[C@]1(C)O[C@@H]1[C@@H](C)[C@@H]1C[C@](O)(NC(=O)O1)[C@@H](OC)/C=C/C=C(\C)C2 [DM1SMe, DM1-SMe, reference compound]
- EC50 [2, 6]: 0.5 nM
- EC50 [2, 7]: 5.8 ± 1.1 nM

Compound: CC(C)[C@@H](C(=O)NCCOCCOCCNC(=O)CCCCc1ccc(C2=C(/C=C/C3=[N+](CCCCS(=O)(=O)O)c4ccc(S(=O)(=O)O)cc4C3(C)C)CCC/C2=C\C=C2\N(CCCCS(=O)(=O)O)c3ccc(S(=O)(=O)[O-])cc3C2(C)C)cc1)n1cc(-c2ccc(S(N)(=O)=O)cc2)nn1 [Compound 2c, (S)—N-(2-(2-(2-aminoethoxy)ethoxy)ethyl)-3-methyl-2-(4-(4-sulfamoylphenyl)-1H-1,2,3-triazol-1-yl)butanamide IRDye750 conjugate]
- tumor targeting by near infrared imaging [3]: the tumor was barely visible

Compound: CC(C)(C)OC(=O)NCCOCCOCCNC(=S)Nc1ccc(-c2c3ccc(=O)cc-3oc3cc(O)ccc23)c(C(=O)O)c1 [Compound 6a, Tert-butyl (2-(2-(2-aminoethoxy)ethoxy)ethyl)carbamate fluorescein conjugate]
- binding to CAIX (in words) [1]: did not bind to the CAIX

Compound: COc1cc2[nH]cc(C(=O)N3C[C@@H](CCl)c4c3cc(OC(=O)N(C)CCSSC[C@H](NC(=O)[C@H](CC(=O)O)NC(=O)[C@H](CCCNC(=N)N)NC(=O)[C@H](CC(=O)O)NC(=O)CCCCn3cc(CCCC(=O)O)nn3)C(=O)O)c3ccccc43)c2cc1OCCN(C)C [Compound 8b, Untargeted CBI Carbamate]
- binding affinity for recombinant CAIX in vitro (in words) [4]: do not exhibit strong binding
- tumor growth effect (SKRC52 xenograft tumors; 5 doses of 4 nmol on 5 consecutive days, 7a vs vehicle p<0.0001, vs 7b plus AAZ p<0.05): did not lead to any retardation in tumor growth

Compound: CC(C)[C@@H](C(=O)NCCOCCOCCNC(=S)Nc1ccc(-c2c3ccc(=O)cc-3oc3cc(O)ccc23)c(C(=O)O)c1)n1cc(-c2ccc(S(N)(=O)=O)cc2)nn1 [Compound 2a, (S)—N-(2-(2-(2-aminoethoxy)ethoxy)ethyl)-3-methyl-2-(4-(4-sulfamoylphenyl)-1H-1,2,3-triazol-1-yl)butanamide fluorescein conjugate]
- Kd [1]: 18.1 ± 1.3 nM

Compound: NS(=O)(=O)c1ccc(C(=O)NCCOCCOCCNC(=S)Nc2ccc(-c3c4ccc(=O)cc-4oc4cc(O)ccc34)c(C(=O)O)c2)cc1 [Compound 5a, N-(2-(2-(2-aminoethoxy)ethoxy)ethyl)-4-sulfamoylbenzamide fluorescein conjugate]
- Kd [1]: 218 ± 9 nM

Compound: CNC(=O)c1cc(Oc2ccc(NC(=O)Nc3ccc(Cl)c(C(F)(F)F)c3)cc2)ccn1 [sorafenib, reference compound]
- antitumor effect of standard drugs (SKRC52 xenograft tumors; standard dose of 30 mg/kg): neither sorafenib nor sunitinib, which represent the most commonly used chemotherapeutic agents for the treatment of kidney cancer, exhibited any detectable antitumor effect

Compound: NS(=O)(=O)c1nnc(NC(=O)CCC(=O)NCCOCCOCCNC(=S)Nc2ccc(-c3c4ccc(=O)cc-4oc4cc(O)ccc34)c(C(=O)O)c2)s1 [Compound 1a, N1-(2-(2-(2-aminoethoxy)ethoxy)ethyl)-N4-(5-sulfamoyl-1,3,4-thiadiazol-2-yl)succinamide fluorescein conjugate]
- Kd [1]: 12.6 ± 1 nM

Compound: COc1cc2cc(c1Cl)N(C)C(=O)C[C@H](OC(=O)[C@H](C)N(C)C(=O)CCSSC[C@H](NC(=O)[C@H](CC(=O)O)NC(=O)[C@H](CCCNC(=N)N)NC(=O)[C@H](CC(=O)O)NC(=O)CCCCn1cc(CCCC(=O)O)nn1)C(=O)O)[C@@]1(C)O[C@H]1[C@H](C)[C@@H]1C[C@@](O)(NC(=O)O1)[C@H](OC)/C=C/C=C(\C)C2 [Compound 9b, Untargeted DM1 Conjugate]
- binding affinity for recombinant CAIX in vitro (in words) [4]: do not exhibit strong binding

Compound: COc1cc2cc(c1Cl)N(C)C(=O)C[C@H](OC(=O)[C@H](C)N(C)C(=O)CCS)[C@]1(C)O[C@H]1[C@H](C)[C@@H]1C[C@@](O)(NC(=O)O1)[C@H](OC)/C=C/C=C(\C)C2 [DM1, reference compound]
- EC50 [2, 8]: 45 ± 10 nM

Compound: COc1cc2[nH]cc(C(=O)N3C[C@@H](CCl)c4c3cc(OC(=O)OCCSSC[C@H](NC(=O)[C@H](CC(=O)O)NC(=O)[C@H](CCCNC(=N)N)NC(=O)[C@H](CC(=O)O)NC(=O)CCCCn3cc(CCCC(=O)O)nn3)C(=O)O)c3ccccc43)c2cc1OCCN(C)C [Compound 7b, Untargeted CBI Carbonate]
- binding affinity for recombinant CAIX in vitro (in words) [4]: do not exhibit strong binding
- Kd ([4]; unlabeled drug-linker conjugate, read-out: KD (competitive fluorescence polarization)): > 1000 nM
- EC50 [2, 8]: 1.4 ± 0.3 nM

Compound: CC1(C)C(/C=C/C2=C(c3ccc(CCCCC(=O)NCCOCCOCCNC(=O)[C@H](CCCCNC(=O)[C@H](CC(=O)O)NC(=O)[C@H](CC(=O)O)NC(=O)CCCCn4cc(CCCC(=O)Nc5nnc(S(N)(=O)=O)s5)nn4)NC(=O)[C@H](CC(=O)O)NC(=O)[C@H](CC(=O)O)NC(=O)CCCCn4cc(CCCC(=O)Nc5nnc(S(N)(=O)=O)s5)nn4)cc3)C(=C/C=C3/N(CCCCS(=O)(=O)O)c4ccc(S(=O)(=O)O)cc4C3(C)C)/CCC2)=[N+](CCCCS(=O)(=O)[O-])c2ccc(S(=O)(=O)O)cc21 [Compound B4]
- accumulation in the tumour (imaging) [5]: strongly accumulated in the tumour
- integrated fluorescence signal in the tumour, of its initial value [5]: 40%
- residence on the tumour [5]: significantly longer residence on the tumour
- tumour:lung ratio [5]: higher tumour:lung ratio than B3

Compound: COc1cc2[nH]c(C(=O)N3C[C@@H](CCl)c4c3cc(O)c3ccccc43)cc2cc1OCCN(C)C [Compound 14, Seco CBI Drug]
- EC50 [2, 6]: 0.055 ± 0.005 nM
- EC50 [2, 7]: 1 ± 0.1 nM
